This is an account of results in BindingDB's records for patent US12414952 (Merck Sharp & Dohme, 2025).

The target of this experiment is Adenosine receptor A2a (Homo sapiens, UniProt P29274). In words: A2a binding affinity assay C. How it is done: Method (C): Measurement of A2a Binding Affinity Using an Alternative Radioligand Binding AssayMembranes used in this procedure were made by washing cell cultures twice with DPBS buffer (Dulbecco's phosphate buffered saline without calcium and magnesium, ThermoFisher Scientific, Cat. No. A1285601), and harvesting the cell cultures by mechanical scraping. The cells were collected by centrifugation and re-suspended in 10 mM HEPES, pH 7.4 containing 0.1 mM benzamidine (Sigma, Cat. No. B6506) and 0.1 mM PMSF (phenylmethylsulfonyl fluoride, Sigma, Cat. No. 10837091001). Cells were freeze-thawed twice in a dry ice/ethanol bath and homogenized with 25 to 30 strokes in a glass dounce homogenizer (Wheaton, Cat. No. 357546). Membranes were pelleted at 40,000×g for 20 min at 4° C. and re-suspended in assay buffer (5 mM HEPES, pH 7.4, 5 mM MgCl2; supplemented with 0.1 mM benzamidine) at a protein concentration of 2.6 mg/mL. Protein concentration was determined by the Bio-Rad method (Bio-Rad, Cat. No. 5000002). […] After normalization to total and non-specific binding, the percent effect at each compound concentration was calculated. The plot of percent effect versus the log of compound concentration was analyzed electronically using a 4-parameter logistic fit based on the Levenberg-Marquardt algorithm to generate IC50 values.
Adenosine receptor A2a, sequence (P29274 whole entry): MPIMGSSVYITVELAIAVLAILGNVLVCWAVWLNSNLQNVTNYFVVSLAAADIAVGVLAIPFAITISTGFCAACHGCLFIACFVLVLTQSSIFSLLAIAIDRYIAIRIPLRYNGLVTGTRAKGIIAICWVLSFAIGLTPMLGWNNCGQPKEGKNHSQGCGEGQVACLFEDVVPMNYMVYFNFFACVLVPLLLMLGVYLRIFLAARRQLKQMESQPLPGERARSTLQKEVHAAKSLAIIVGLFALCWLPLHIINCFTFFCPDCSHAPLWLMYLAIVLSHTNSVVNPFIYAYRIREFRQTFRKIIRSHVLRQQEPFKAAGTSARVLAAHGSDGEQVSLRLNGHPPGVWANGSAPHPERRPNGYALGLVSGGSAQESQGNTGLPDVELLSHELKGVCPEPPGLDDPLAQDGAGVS

Usually IC50 stands for the point on the concentration scale where inhibition reaches its midpoint. A lower IC50 goes with higher potency. Turning to `Nc1nc(-c2ccccc2)c(C2CC2)c2nc(CCN3CC(F)(F)C3)nn12` [US12414952, Example 20.6], the IC50 is 122 nM.
